biological target: T1, full-length recombinant human NEK7 (Homo sapiens, UniProt Q8TDX7); assay: NEK7 enzymatic assay ([33P]-ATP, casein substrate); assay type: biochemical; conditions: Table 2a; recombinant human NEK7, casein substrate
T1 construct: full-length recombinant human NEK7; GST (N); purchased SignalChem N09-10G; host or cells: Sf9 insect cells (baculovirus)
Protocol: In some embodiments, the IC50 of the compounds of Structure (I), (Ia), (Ib), (Ic), (Id), (Ie), or (If) to inhibit NEK7 was determined by the concentration of the compound required to inhibit 50% of the activity of the NEK kinase.
(§1) Casein substrate (from bovine milk, hydrolyzed and partially dephosphorylated mixture of α, β and κ caseins, obtained from Sigma Aldrich, catalogue #C4765, diluted in distilled water to a final concentration of 1 mg/mL) and full-length recombinant human NEK7 (expressed by baculovirus in Sf9 insect cells using a N-terminal GST tag, obtained from SignalChem, catalogue #N09-10G, 0.1 μg/μL) were mixed in assay buffer (20 mM Hepes pH 7.5, 10 mM MgCl2, 1 mM EGTA, 0.02% Brij35, 0.02 mg/ml BSA, 0.1 mM Na3 VO4, 2 mM DTT, 1% DMSO). Compounds of interest (serial 3-fold dilution in DMSO from 10 μM to 0.5 nM) or vehicle (1% DMSO) were dispensed into the kinase reaction mixture by Acoustic technology (Echo550, nanoliter range). After incubation at room temperature for 20 minutes, the kinase reaction was initiated by addition of [^33P]-ATP (specific activity 10 μCi/μl) and the mixture was incubated at room temperature for 2 hours. The reaction was then stopped by spotting the reaction mixture on strips of phosphocellulose P81 paper. Following washing, the radioactivity of the P81 paper was measured and kinase activity data were expressed as the percent remaining kinase activity in test samples compared to vehicle reactions. IC50 values and curve fits were obtained using Prism (GraphPad Software).
as §1, with “μg/L)” for “μg/μL)”, “Na3VO4,” for “Na3 VO4,”, “(Echo550;” for “(Echo550,”

T1 sequence (Q8TDX7 whole entry): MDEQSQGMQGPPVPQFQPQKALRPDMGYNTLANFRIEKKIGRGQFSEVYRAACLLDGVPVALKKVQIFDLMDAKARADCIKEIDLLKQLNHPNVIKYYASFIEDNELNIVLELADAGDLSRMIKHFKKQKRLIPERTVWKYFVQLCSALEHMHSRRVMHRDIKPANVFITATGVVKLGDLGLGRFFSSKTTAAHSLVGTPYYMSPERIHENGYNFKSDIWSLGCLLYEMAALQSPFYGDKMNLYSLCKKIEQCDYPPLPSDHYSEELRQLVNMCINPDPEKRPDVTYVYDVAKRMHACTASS

IC50 [nM]	Structure (SMILES)
301 to 500	CC(C)(C)c1cc(NC(=O)Nc2ccc(-c3nn(C4CCCOC4)c4ncnc(N)c34)cc2F)on1 (stereo not drawn) [Ia-19, 1-(4-(4-amino-1-(tetrahydro-2H-pyran-3-yl)-1H-pyrazolo[3,4-d]pyrimidin-3-yl)-2-fluorophenyl)-3-(3-(tert-butyl)isoxazol-5-yl)urea]
151 to 300	Nc1ncnc2c1c(-c1ccc(NC(=O)Nc3cc(C4(C(F)(F)F)CC4)no3)nc1)nn2C1COC1 [Ia-61]
< 150	CC(C)(O)Cn1nc(-c2ccc(NC(=O)Nc3cc(C(C)(C)C)no3)c(F)c2)c2c(N)ncnc21 [Ia-10]
< 150	CCc1cc(NC(=O)Nc2ccc(-c3nn(C4CC4)c4ncnc(N)c34)cc2F)on1 [Ia-42, 1-(4-(4-amino-1-cyclopropyl-1H-pyrazolo[3,4-d]pyrimidin-3-yl)-2-fluorophenyl)-3-(3-ethylisoxazol-5-yl)urea]
301 to 500	CC(C)(O)Cn1nc(-c2ccc(NC(=O)Nc3cc(C(C)(C)C)no3)cc2)c2c(N)ncnc21 [Ia-9, 1-(4-(4-amino-1-(2-hydroxy-2-methylpropyl)-1H-pyrazolo[3,4-d]pyrimidin-3-yl)phenyl)-3-(3-(tert-butyl)isoxazol-5-yl)urea]
< 150	CC(C)(C)c1cc(NC(=O)Nc2ccc(-c3nn(C4CCC(O)CC4)c4ncnc(N)c34)cc2F)on1 (stereo not drawn) [Ia-15]
< 150	CC(C)(C)c1cc(NC(=O)Nc2ccc(-c3nn(C4CCOC4)c4ncnc(N)c34)cc2F)on1 (stereo not drawn) [Ia-24, 1-(4-(4-amino-1-(tetrahydrofuran-3-yl)-1H-pyrazolo[3,4-d]pyrimidin-3-yl)-2-fluorophenyl)-3-(3-(tert-butyl)isoxazol-5-yl)urea]
501 to 1500	CC(C)(C)c1cc(NC(=O)Nc2ccc(-c3nn(C4CC4)c4ncnc(N)c34)cc2F)sn1 [Ia-35, 1-(4-(4-amino-1-cyclopropyl-1H-pyrazolo[3,4-d]pyrimidin-3-yl)-2-fluorophenyl)-3-(3-(tert-butyl)isothiazol-5-yl)urea]
501 to 1500	CC(C)(C)c1nnc(NC(=O)Nc2ccc(-c3nn(C4CC4)c4ncnc(N)c34)cc2F)o1 [Ia-36, 1-(4-(4-amino-1-cyclopropyl-1H-pyrazolo[3,4-d]pyrimidin-3-yl)-2-fluorophenyl)-3-(5-(tert-butyl)-1,3,4-oxadiazol-2-yl)urea]
151 to 300	Nc1ncnc2c1c(-c1ccc(NC(=O)Nc3cc(C(F)(F)F)no3)c(F)c1)nn2C1CC1 [Ia-39, 1-(4-(4-amino-1-cyclopropyl-1H-pyrazolo[3,4-d]pyrimidin-3-yl)-2-fluorophenyl)-3-(3-(trifluoromethyl)isoxazol-5-yl)urea]

same assay, conditions: Table 2b; recombinant human NEK7, casein substrate

IC50 [nM]	Structure (SMILES)
> 1500	CC(C)(C)c1cc(NC(=O)Nc2ccc(Oc3ncnc4[nH]ccc34)cc2F)n(-c2ccccc2)n1 [Ib-3, 1-(4-((7H-pyrrolo[2,3-d]pyrimidin-4-yl)oxy)-2-fluorophenyl)-3-(3-(tert-butyl)-1-phenyl-1H-pyrazol-5-yl)urea]

same assay, conditions: Table 2e; recombinant human NEK7, casein substrate

IC50 [nM]	Structure (SMILES)
> 1500	CN1CCN(Cc2ccc(NC(=O)Nc3ccc(Oc4ccnc5[nH]cc(Cl)c45)cc3F)cc2F)CC1 [Ie-5, 1-(4-((3-chloro-1H-pyrrolo[2,3-b]pyridin-4-yl)oxy)-2-fluorophenyl)-3-(3-fluoro-4-((4-methylpiperazin-1-yl)methyl)phenyl)urea]
> 1500	CN1CC2CCC1CN2Cc1ccc(NC(=O)Nc2ccc(Oc3ccnc4[nH]cc(Cl)c34)cc2F)cc1C(F)(F)F (stereo not drawn) [Ie-35, 1-(4-((3-chloro-1H-pyrrolo[2,3-b]pyridin-4-yl)oxy)-2-fluorophenyl)-3-(4-((5-methyl-2,5-diazabicyclo[2.2.2]octan-2-yl)methyl)-3-(trifluoromethyl)phenyl)urea]
501 to 1500	CC(c1ccc(NC(=O)Nc2ccc(Oc3ccnc4[nH]cc(Cl)c34)cc2F)cc1C(F)(F)F)N1CCN(C)CC1 (stereo not drawn) [Ie-13, 1-(4-((3-chloro-1H-pyrrolo[2,3-b]pyridin-4-yl)oxy)-2-fluorophenyl)-3-(4-(1-(4-methylpiperazin-1-yl)ethyl)-3-(trifluoromethyl)phenyl)urea]
301 to 500	Cc1cn(-c2ccc(NC(=O)Nc3ccc(Oc4ccnc5[nH]cc(Cl)c45)cc3F)cc2C(F)(F)F)cn1 [Ie-24, 1-(4-((3-chloro-1H-pyrrolo[2,3-b]pyridin-4-yl)oxy)-2-fluorophenyl)-3-(4-(4-methyl-1H-imidazol-1-yl)-3-(trifluoromethyl)phenyl)urea]

same assay, conditions: Table 2d; recombinant human NEK7, casein substrate

IC50 [nM]	Structure (SMILES)
> 1500	Cc1cc(NC(=O)Nc2ccc(-c3cn(C4CC4)c4ncnc(N)c34)cc2F)ccc1N1CCOCC1 [Id-32, 1-(4-(4-amino-7-cyclopropyl-7H-pyrrolo[2,3-d]pyrimidin-5-yl)-2-fluorophenyl)-3-(3-methyl-4-morpholinophenyl)urea]
> 1500	Cc1cn(-c2ccc(NC(=O)Nc3ccc(-c4cn(C5CC5)c5ncnc(N)c45)cc3F)cc2C(F)(F)F)cn1 [Id-23]
< 150	CN(C)C1CCN(Cc2ccc(NC(=O)Nc3ccc(-c4cn(C5CC5)c5ncnc(N)c45)cc3F)cc2C(F)(F)F)C1 (stereo not drawn) [Id-44, 1-(4-(4-amino-7-cyclopropyl-7H-pyrrolo[2,3-d]pyrimidin-5-yl)-2-fluorophenyl)-3-(4-((3-(dimethylamino)pyrrolidin-1-yl)methyl)-3-(trifluoromethyl)phenyl)urea]
< 150	COCCN1CCN(Cc2ccc(NC(=O)Nc3ccc(-c4cn(C5CC5)c5ncnc(N)c45)cc3F)cc2C(F)(F)F)CC1 [Id-42, 1-(4-(4-amino-7-cyclopropyl-7H-pyrrolo[2,3-d]pyrimidin-5-yl)-2-fluorophenyl)-3-(4-((4-(2-methoxyethyl)piperazin-1-yl)methyl)-3-(trifluoromethyl)phenyl)urea]
< 150	CN1CCCN(Cc2ccc(NC(=O)Nc3ccc(-c4cn(C5CC5)c5ncnc(N)c45)cc3F)cc2C(F)(F)F)CC1 [Id-43, 1-(4-(4-amino-7-cyclopropyl-7H-pyrrolo[2,3-d]pyrimidin-5-yl)-2-fluorophenyl)-3-(4-((4-methyl-1,4-diazepan-1-yl)methyl)-3-(trifluoromethyl)phenyl)urea]
< 150	CN1CCN(Cc2ncc(NC(=O)Nc3ccc(-c4cn(C5CC5)c5ncnc(N)c45)cc3F)cc2C(F)(F)F)CC1 [Id-67]
> 1500	CN1CCN(Cc2ccc(NC(=O)Nc3ccc(-c4cn(C5CC5)c5ncnc(N)c45)cc3F)cc2)CC1 [Id-56]
< 150	Nc1ncnc2c1c(-c1ccc(NC(=O)Nc3ccc(CN4CCN(CCO)CC4)c(C(F)F)c3)c(F)c1)cn2C1CC1 [Id-71]
> 1500	CCN1CCN(Cc2ccc(NC(=O)Nc3ccc(-c4cn(C5CC5)c5ncnc(N)c45)cc3F)cc2C(F)F)CC1 [Id-59]
151 to 300	CC1CN(C)CCN1Cc1ccc(NC(=O)Nc2ccc(-c3cn(C4CC4)c4ncnc(N)c34)cc2F)cc1C(F)(F)F (stereo not drawn) [Id-69]
> 1500	CN1CCN(Cc2ccc(NC(=O)Nc3ccc(-c4cn(C5CC5)c5ncnc(N)c45)cc3F)cc2C(F)F)CC1 [Id-58]

same assay, conditions: comparative compounds of Structure (II)

IC50 [nM]	Structure (SMILES)
151 to 300	Nc1ncnc2c1c(-c1ccc3c(c1Cl)CCN3C(=O)Cc1ccc(F)c(C(F)(F)F)c1)nn2C1COC1 [II-10, 1-(5-(4-amino-1-(oxetan-3-yl)-1H-pyrazolo[3,4-d]pyrimidin-3-yl)-4-chloroindolin-1-yl)-2-(4-fluoro-3-(trifluoromethyl)phenyl)ethan-1-one]
301 to 500	CC(C)n1nc(-c2ccc3c(c2F)CCN3C(=O)Cc2cccc(C(F)(F)F)c2)c2c(N)ncnc21 [II-1, l-(5-(4-amino-1-isopropyl-1H-pyrazolo[3,4-d]pyrimidin-3-yl)-4-fluoroindolin-1-yl)-2-(3-(trifluoromethyl)phenyl)ethan-1-one]
151 to 300	Nc1ncnc2c1c(-c1ccc3c(c1F)CCN3C(=O)Cc1cccc(C(F)(F)F)c1)nn2C1CC1 [II-4, 1-(5-(4-amino-1-cyclopropyl-1H-pyrazolo[3,4-d]pyrimidin-3-yl)-4-fluoroindolin-1-yl)-2-(3-(trifluoromethyl)phenyl)ethan-1-one]
151 to 300	CC(C)n1nc(-c2ccc3c(c2F)CCN3C(=O)Cc2cccc(OC(F)(F)F)c2)c2c(N)ncnc21 [II-7, 1-(5-(4-amino-1-isopropyl-1H-pyrazolo[3,4-d]pyrimidin-3-yl)-4-fluoroindolin-1-yl)-2-(3-(trifluoromethoxy)phenyl)ethan-1-one]
